Results on 26 compounds are retold here after patent US7872014B2, “Anaplastic lymphoma kinase modulators and methods of use” (Exelixis, Inc., priority 2003, dated 2011).

T1 sequence (Q9UM73 1098-1410): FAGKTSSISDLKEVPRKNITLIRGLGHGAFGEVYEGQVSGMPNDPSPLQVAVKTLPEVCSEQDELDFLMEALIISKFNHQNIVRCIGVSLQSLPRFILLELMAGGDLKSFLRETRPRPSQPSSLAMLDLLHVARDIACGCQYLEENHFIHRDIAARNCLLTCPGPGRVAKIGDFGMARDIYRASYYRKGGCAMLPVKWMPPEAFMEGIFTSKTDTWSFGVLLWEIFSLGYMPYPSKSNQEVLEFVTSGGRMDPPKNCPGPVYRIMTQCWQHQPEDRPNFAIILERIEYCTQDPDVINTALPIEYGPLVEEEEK

This assay addresses T1, ALK (baculovirus expressed human ALK kinase domain F1098-K1410) (Homo sapiens, UniProt Q9UM73).
T1 construct: baculovirus expressed human ALK kinase domain F1098-K1410; made in house
In words: Luciferase-Coupled Chemiluminescent Kinase assay (LCCA), ALK biochemical activity. As to conditions: inhibition of ALK; mean values; 1 μM ATP, 4 μM poly-AEKY, 12 nM ALK, 2 hours ambient temperature. As to the method: ALK biochemical activity was assessed using a Luciferase-Coupled Chemiluminescent Kinase assay (LCCA) format in which kinase activity was measured as the percent ATP remaining following the kinase reaction. ATP remaining after the kinase reaction was detected by luciferase-luciferin-coupled chemiluminescence.
The reaction was initiated by mixing test compounds, 1 μM ATP, 4 μM poly-AEKY and 12 nM ALK (baculovirus expressed human ALK kinase domain F1098-K1410) in a 20 μL assay buffer ([…] pH 7.5, 10 mM MgCl2, 0.02% Triton X-100, 100 mM DTT, 2 mM MnCl2). The mixture was incubated at ambient temperature for 2 hours after which 20 μL luciferase-luciferin mix was added and the chemiluminescent signal read using a Wallac Victor^2 reader. The luciferase-luciferin mix consists of 50 mM HEPES, pH 7.8, 8.5 μg/mL oxalic acid (pH 7.8), 5 (or 50) mM DTT, 0.4% Triton X-100, 0.25 mg/mL coenzyme A, 63 μM AMP, 28 μg/mL luciferin and 40,000 units of light/mL luciferase.
Consumption of ATP by ALK can thus be quantified and utilized as a measure of inhibition of ALK activity by compounds described herein. By employing serial dilutions of compounds to be tested, the ability of test compounds to inhibit ALK activity can be determined.
In general, IC50 refers to the concentration that inhibits the measured activity by half. For `COc1cc2c(-c3ccc(O)c(Cl)c3)nc3[nH]nc(C)c3c2cc1OCC1CCN(C(C)=O)CC1` [Example 106, 4-[8-{[(1-acetylpiperidin-4-yl)methyl]oxy}-1-methyl-7-(methyloxy)-3H-pyrazolo[3,4-c]isoquinolin-5-yl]-2-chlorophenol], the IC50 was not above 99 nM.
To `COc1ccc2c(-c3ccc(O)c(Br)c3)nc3[nH]nc(C)c3c2c1OCC1CCN(C(C)=O)CC1` [Example 107, 4-[9-{[(1-acetylpiperidin-4-yl)methyl]oxy}-1-methyl-8-(methyloxy)-3H-pyrazolo[3,4-c]isoquinolin-5-yl]-2-bromophenol] belongs not above 99 nM; to `COCCOc1ccc2c(-c3ccc(O)c(Cl)c3)nc3[nH]nc(C)c3c2c1OC` [Example 108, 2-chloro-4-(1-methyl-9-(methyloxy)-8-{[2-(methyloxy)ethyl]oxy}-3H-pyrazolo[3,4-c]isoquinolin-5-yl)phenol], not above 99 nM.
The compound `COc1cc2c(cc1F)c(-c1ccc(O)cc1)nc1[nH]nc(C)c12` [Example 109, 4-[7-fluoro-1-methyl-8-(methyloxy)-3H-pyrazolo[3,4-c]isoquinolin-5-yl]phenol] gave an IC50 of 100 to 999 nM.
Take `COCCOc1ccc2c(-c3ccc(O)c(Cl)c3)nc3[nH]nc(C)c3c2c1OCCOC` [Example 110, 2-chloro-4-(1-methyl-8,9-bis{[2-(methyloxy)ethyl]oxy}-3H-pyrazolo[3,4-c]isoquinolin-5-yl)phenol]: the IC50 is not above 99 nM.
The compound `COCCOc1ccc2c(-c3ccc(O)c(Br)c3)nc3[nH]nc(C)c3c2c1OCCOC` [Example 111, 2-bromo-4-(1-methyl-8,9-bis{[2-(methyloxy)ethyl]oxy}-3H-pyrazolo[3,4-c]isoquinolin-5-yl)phenol] yielded an IC50 not above 99 nM.
`COCCOc1c(OC)ccc2c(-c3ccc(O)c(Cl)c3)nc3[nH]nc(C)c3c12` [Example 112, 2-chloro-4-(1-methyl-8-(methyloxy)-9-{[2-(methyloxy)ethyl]oxy}-3H-pyrazolo[3,4-c]isoquinolin-5-yl)phenol] displayed an IC50 not above 99 nM.
In turn, `COCCOc1c(OC)ccc2c(-c3ccc(O)c(Br)c3)nc3[nH]nc(C)c3c12` [Example 113, 2-bromo-4-(1-methyl-8-(methyloxy)-9-{[2-(methyloxy)ethyl]oxy}-3H-pyrazolo[3,4-c]isoquinolin-5-yl)phenol] registered an IC50 not above 99 nM.
`COc1cc2c(-c3ccc(O)cc3F)nc3[nH]nc(C)c3c2cc1OC` [Example 114, 3-fluoro-4-[1-methyl-7,8-bis(methyloxy)-3H-pyrazolo[3,4-c]isoquinolin-5-yl]phenol] showed an IC50 not above 99 nM.
Compound `COCCOc1cc2c(cc1OC)c(-c1ccc(O)c(Cl)c1)nc1[nH]nc(C)c12` [Example 115, 2-chloro-4-(1-methyl-7-(methyloxy)-8-{[2-(methyloxy)ethyl]oxy}-3H-pyrazolo[3,4-c]isoquinolin-5-yl)phenol] showed an IC50 not above 99 nM.
In turn, `COCCOc1cc2c(cc1OC)c(-c1ccc(O)c(Br)c1)nc1[nH]nc(C)c12` [Example 116, 2-bromo-4-(1-methyl-7-(methyloxy)-8-{[2-(methyloxy)ethyl]oxy}-3H-pyrazolo[3,4-c]isoquinolin-5-yl)phenol] gave an IC50 not above 99 nM.
To `COCCOc1cc2c(-c3ccc(O)c(Cl)c3)nc3[nH]nc(C)c3c2cc1OCCOC` [Example 117, 2-chloro-4-(1-methyl-7,8-bis{[2-(methyloxy)ethyl]oxy}-3H-pyrazolo[3,4-c]isoquinolin-5-yl)phenol] belongs 100 to 999 nM.
`COCCOc1cc2c(-c3ccc(O)c(Br)c3)nc3[nH]nc(C)c3c2cc1OCCOC` [Example 118, 2-bromo-4-(1-methyl-7,8-bis{[2-(methyloxy)ethyl]oxy}-3H-pyrazolo[3,4-c]isoquinolin-5-yl)phenol] yielded an IC50 of 100 to 999 nM.
In turn, `COCCOc1cc(F)c2c(-c3ccc(O)cc3)nc3[nH]nc(C)c3c2c1F` [Example 120, 4-(6,9-difluoro-1-methyl-8-{[2-(methyloxy)ethyl]oxy}-3H-pyrazolo[3,4-c]isoquinolin-5-yl)phenol] showed an IC50 not above 99 nM.
Take `COc1cc2c(-c3cc(Cl)c(O)cc3F)nc3[nH]nc(C)c3c2cc1OC` [Example 121, 2-chloro-5-fluoro-4-[1-methyl-7,8-bis(methyloxy)-3H-pyrazolo[3,4-c]isoquinolin-5-yl]phenol]: the IC50 is not above 99 nM.
Consider `COc1cc2c(-c3cc(Br)c(O)cc3F)nc3[nH]nc(C)c3c2cc1OC` [Example 122, 2-bromo-5-fluoro-4-[1-methyl-7,8-bis(methyloxy)-3H-pyrazolo[3,4-c]isoquinolin-5-yl]phenol], for which the IC50 was not above 99 nM.
As for `COc1cc2c(-c3ccc(O)cc3)cc3[nH]nc(C)c3c2c(F)c1OC` [Example 123, 4-[9-fluoro-1-methyl-7,8-bis(methyloxy)-3H-benzo[e]indazol-5-yl]phenol], the figure is 100 to 999 nM.
The compound `COCCOc1cc2c(cc1OC)c(-c1ccc(O)cc1F)nc1[nH]nc(C)c12` [Example 125, 3-fluoro-4-(1-methyl-7-(methyloxy)-8-{[2-(methyloxy)ethyl]oxy}-3H-pyrazolo[3,4-c]isoquinolin-5-yl)phenol] displayed an IC50 not above 99 nM.
`COCCOc1cc(F)c2c(-c3ccc(O)cc3F)nc3[nH]nc(C)c3c2c1F` [Example 126, 4-(6,9-difluoro-1-methyl-8-{[2-(methyloxy)ethyl]oxy}-3H-pyrazolo[3,4-c]isoquinolin-5-yl)-3-fluorophenol] showed an IC50 not above 99 nM.
Compound `COCCOc1cc(F)c2c(-c3ccc(O)c(Cl)c3)nc3[nH]nc(C)c3c2c1F` [Example 127, 2-chloro-4-(6,9-difluoro-1-methyl-8-{[2-(methyloxy)ethyl]oxy}-3H-pyrazolo[3,4-c]isoquinolin-5-yl)phenol] gave an IC50 not above 99 nM.
For the compound `CCOc1cc2c(cc1OC)c(-c1ccc(O)c(Cl)c1)nc1[nH]nc(C)c12` [Example 128, 2-chloro-4-[8-(ethyloxy)-1-methyl-7-(methyloxy)-3H-pyrazolo[3,4-c]isoquinolin-5-yl]phenol], the IC50 was 100 to 999 nM.
As for `COc1cc2c(c(-c3ccc(O)c(Cl)c3)nc3[nH]nc(C)c32)c(Cl)c1OC` [Example 129, 2-chloro-4-[6-chloro-1-methyl-7,8-bis(methyloxy)-3H-pyrazolo[3,4-c]isoquinolin-5-yl]phenol], the figure is 100 to 999 nM; as for `COCCOc1ccc2c(-c3ccc(O)cc3F)nc3[nH]nc(C)c3c2c1OC` [Example 130, 3-fluoro-4-(1-methyl-9-(methyloxy)-8-{[2-(methyloxy)ethyl]oxy}-3H-pyrazolo[3,4-c]isoquinolin-5-yl)phenol], not above 99 nM.
The compound `COCCOc1cc2c(cc1C)c(-c1ccc(O)c(Cl)c1)nc1[nH]nc(C)c12` [Example 131, 2-chloro-4-(1,7-dimethyl-8-{[2-(methyloxy)ethyl]oxy}-3H-pyrazolo[3,4-c]isoquinolin-5-yl)phenol] showed an IC50 not above 99 nM.
Compound `COCCOc1cc2c(c(-c3ccc(O)cc3F)nc3[nH]nc(C)c32)c(F)c1OC` [Example 132, 3-fluoro-4-(6-fluoro-1-methyl-7-(methyloxy)-8-{[2-(methyloxy)ethyl]oxy}-3H-pyrazolo[3,4-c]isoquinolin-5-yl)phenol] yielded an IC50 not above 99 nM.
With `COc1cc2c(-c3ccc(O)c(Cl)c3)nc3[nH]nc(C)c3c2cc1OC(C)C` [Example 133, 2-chloro-4-[1-methyl-8-[(1-methylethyl)oxy]-7-(methyloxy)-3H-pyrazolo[3,4-c]isoquinolin-5-yl]phenol], the IC50 is not above 99 nM.
